Target: T1, human CRTH2 (Homo sapiens, UniProt Q9Y5Y4)
T1 construct: expressed in transfected cells
T1 sequence (Q9Y5Y4 1-395): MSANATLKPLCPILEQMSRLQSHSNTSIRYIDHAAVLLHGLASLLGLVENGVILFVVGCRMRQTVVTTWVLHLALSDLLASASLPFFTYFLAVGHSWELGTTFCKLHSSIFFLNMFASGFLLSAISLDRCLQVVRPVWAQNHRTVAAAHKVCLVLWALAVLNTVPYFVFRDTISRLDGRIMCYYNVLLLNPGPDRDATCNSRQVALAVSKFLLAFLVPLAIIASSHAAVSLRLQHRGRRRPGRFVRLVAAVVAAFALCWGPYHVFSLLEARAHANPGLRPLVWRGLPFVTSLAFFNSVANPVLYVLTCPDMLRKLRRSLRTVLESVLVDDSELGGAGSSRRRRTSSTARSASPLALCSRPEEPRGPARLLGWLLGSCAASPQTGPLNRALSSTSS
Experiment: [35S]GTPγS binding assay (SPA) on membranes from CHO-K1 cells stably expressing human CRTH2, stimulated with 60 nM DHK-PGD2
Type: biochemical
Conditions: membranes of CHO-K1 cells expressing human CRTH2; 60 nM DHK-PGD2; Table 1; read-out: CRTH2 hGTPγS IC50
In short: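 Membranes (4 μg) from CHO-K1 cells stably expressing human CRTH2 were incubated with compounds, 60 nM DHK-PGD2, 500 pM [35S]GTPγS and 10 μM GDP plus WGA SPA beads. Buffer was 20 mM HEPES pH 7.4, 10 mM MgCl2, 300 mM NaCl, 0.2% BSA, with 1% DMSO. Incubation ran 2 h at ambient temperature, with SPA scintillation read 4 h after centrifugation.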

IC50 | Structure (SMILES)
2.9 nM | COc1cc(F)cc(-c2cc(CN(C)S(=O)(=O)c3ccc(OC)c(F)c3)ccc2OCC(=O)O)c1 [Example 48, 2-(3-fluoro-5-methoxyphenyl)-4-((3-fluoro-4-methoxy-N-methylphenylsulfonamido)methyl)phenoxyacetic acid]
1.5 nM | CN(Cc1cc(-c2cccc(C#N)c2)c(OCC(=O)O)cc1Cl)S(=O)(=O)c1ccc(F)c(Cl)c1 [Example 42, 2-(3-cyanophenyl)-4-((3-chloro-4-fluoro-N-methylphenylsulfonamido)methyl)-5-chlorophenoxyacetic acid]

Same assay, conditions: potency class symbols; Table 2; read-out: CRTH2 hGTPγS IC50

IC50 | Structure (SMILES)
< 100 nM | COc1cc(F)cc(-c2cc(CN(C)S(=O)(=O)c3ccc(OC)c(F)c3)ccc2OCC(=O)O)c1 [Example 48, 2-(3-fluoro-5-methoxyphenyl)-4-((3-fluoro-4-methoxy-N-methylphenylsulfonamido)methyl)phenoxyacetic acid]
< 100 nM | N#Cc1cc(F)cc(-c2cc(CNS(=O)(=O)c3ccc(F)c(Cl)c3)ccc2OCC(=O)O)c1 [Example 193, 2-(3-cyano-5-fluorophenyl)-4-((3-chloro-4-fluorophenylsulfonamido)methyl)phenoxyacetic acid]
< 100 nM | CN(Cc1ccc(OCC(=O)O)c(-c2cc(F)cc(C#N)c2)c1)S(=O)(=O)c1cc(F)cc(F)c1 [Example 76, 2-(3-cyano-5-fluorophenyl)-4-((3,5-difluoro-N-methylphenylsulfonamido)methyl)phenoxyacetic acid]
< 100 nM | CN(Cc1ccc(OCC(=O)O)c(-c2cccc(C(F)(F)F)c2)c1)S(=O)(=O)c1ccc(F)c(Cl)c1 [Example 74, 2-(3-trifluoromethylphenyl)-4-((3-chloro-4-fluoro-N-methylphenylsulfonamido)methyl)phenoxyacetic acid]
< 100 nM | CN(Cc1ccc(OCC(=O)O)c(-c2cc(F)cc(C#N)c2)c1)S(=O)(=O)c1ccc(Cl)s1 [Example 191, 2-(3-cyano-5-fluorophenyl)-4-((2-chloro-N-methylthiophene-5-sulfonamido)methyl)phenoxyacetic acid]
1000 to 10000 nM | CC(C)N(Cc1ccc(OCC(=O)O)c(-c2cccc(C(F)(F)F)c2)c1)S(=O)(=O)c1cc(F)cc(F)c1 [Example 174, 2-(3-trifluoromethylphenyl)-4-((3,5-difluoro-N-isopropylphenylsulfonamido)methyl)phenoxyacetic acid]
1000 to 10000 nM | CN(Cc1ccc(OCC(=O)O)c(-c2cc(F)ccc2F)c1)S(=O)(=O)c1ccccc1 [Example 166, 2-(2,5-difluorophenyl)-4-((N-methylphenylsulfonamido)methyl)phenoxyacetic acid]
100 to 1000 nM | CN(Cc1ccc(OCC(=O)O)c(-c2cccc(OC(F)(F)F)c2)c1)S(=O)(=O)c1ccc(F)cc1 [Example 125, 2-(3-trifluoromethoxyphenyl)-4-((4-fluoro-N-methylphenylsulfonamido)methyl)phenoxyacetic acid]
< 100 nM | CN(Cc1cc(-c2cccc(C#N)c2)c(OCC(=O)O)cc1Cl)S(=O)(=O)c1ccc(F)c(Cl)c1 [Example 42, 2-(3-cyanophenyl)-4-((3-chloro-4-fluoro-N-methylphenylsulfonamido)methyl)-5-chlorophenoxyacetic acid]
100 to 1000 nM | CN(Cc1ccc(OCC(=O)O)c(-c2cccc(C(F)(F)F)c2)c1)S(=O)(=O)c1ccc(F)cc1F [Example 107, 2-(3-trifluoromethylphenyl)-4-((2,4-difluoro-N-methylphenylsulfonamido)methyl)phenoxyacetic acid]
< 100 nM | CN(Cc1cc(-c2cc(F)cc(C#N)c2)c(OCC(=O)O)cc1F)S(=O)(=O)c1cccc(Cl)c1 [Example 210, 2-(3-cyano-5-fluoro-phenyl)-4-((3-chloro-N-methylphenylsulfonamido)methyl)-5-fluorophenoxyacetic acid]
< 100 nM | CN(Cc1cc(-c2cc(F)cc(C#N)c2)c(OCC(=O)O)cc1Cl)S(=O)(=O)c1ccc(F)cc1 [Example 213, 2-(3-cyano-5-fluoro-phenyl)-4-((4-fluoro-N-methylphenylsulfonamido)methyl)-5-chlorophenoxyacetic acid]
100 to 1000 nM | CN(Cc1ccc(OCC(=O)O)c(-c2cccc(C(F)(F)F)c2)c1)S(=O)(=O)c1ccc2ccccc2c1 [Example 148, 2-(3-trifluoromethylphenyl)-4-((N-methylnaphthalene-2-sulfonamido)methyl)phenoxyacetic acid]
1000 to 10000 nM | CN(Cc1ccc(OCC(=O)O)c(-c2ccc(Cl)cc2)c1)S(=O)(=O)c1ccccc1 [Example 179, 2-(4-chlorophenyl)-4-((N-methylphenylsulfonamido)methyl)phenoxyacetic acid]
< 100 nM | CN(Cc1ccc(OCC(=O)O)c(-c2cccc(S(C)(=O)=O)c2)c1)S(=O)(=O)c1ccc(C#N)cc1 [Example 86, 2-(3-methylsulfonylphenyl)-4-((4-cyano-N-methylphenylsulfonamido)methyl)phenoxyacetic acid]
< 100 nM | CN(Cc1ccc(OCC(=O)O)c(-c2cccc(S(C)(=O)=O)c2)c1)S(=O)(=O)c1cc(F)cc(F)c1 [Example 72, 2-(3-methylsulfonylphenyl)-4-((3,5-difluoro-N-methylphenylsulfonamido)methyl)phenoxyacetic acid]
